From the supplement of paper PMC10307832

Assays:
Assay in all cases: relative viability (nuclei count vs DMSO), 5 days (fraction); higher = more cells survive
Shikonin = compound: CC(C)=CC[C@@H](O)C1=CC(=O)c2c(O)ccc(O)c2C1=O [Shikonin]
In short: (§1)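 Viability was read as treated-well nuclei divided by vehicle-well nuclei, using the median across plates. Lung cancer cell lines in 1536-well plates were kept overnight at 37 °C, pinned with five √10-spaced library-drug doses, and after 5 days were Hoechst-stained, imaged at 4× and counted in MetaXpress. Plates passed only with control CV below 25% and at least one doubling.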

[1] = compound: CC(C)N(CCCNC(=O)Nc1ccc(C(C)(C)C)cc1)C[C@H]1O[C@@H](n2ccc3c(N)ncnc32)[C@H](O)[C@@H]1O
In short: as §1

Shikonin + Navitoclax = compound: CC(C)=CC[C@@H](O)C1=CC(=O)c2c(O)ccc(O)c2C1=O [Shikonin] + CC1(C)CCC(c2ccc(Cl)cc2)=C(CN2CCN(c3ccc(C(=O)NS(=O)(=O)c4ccc(N[C@H](CCN5CCOCC5)CSc5ccccc5)c(S(=O)(=O)C(F)(F)F)c4)cc3)CC2)C1 [Navitoclax] (partner 0.5 µM)
In short: (§2)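 A single step with final 0.05% Triton X-100, 1% formaldehyde and 1 ug/ml Hoechst fixed the cells and stained nuclei 5 days after treatment. Lung cancer cell lines in 1536-well plates had been treated by pin tool the day after seeding with one drug alone or a fixed anchor-drug dose plus five library-drug doses (not always all listed) in √10 steps, and nuclei were counted on 4× images. Relative viability is the ratio of nuclei in treated wells to nuclei in vehicle wells, taken as the median of duplicate plates.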

[2] = compound: CC(C)N(CCCNC(=O)Nc1ccc(C(C)(C)C)cc1)C[C@H]1O[C@@H](n2ccc3c(N)ncnc32)[C@H](O)[C@@H]1O + N=C(N)NC(=N)NCCc1ccccc1 [Phenformin] (partner 250 µM)
In short: as §2

Cell Line | relative viability (Shikonin; 0.01 µM) | relative viability (Shikonin; 0.1 µM) | relative viability (Shikonin; 0.3162 µM) | relative viability (Shikonin; 1 µM) | relative viability ([1]; 0.08 µM) | relative viability ([1]; 0.253 µM) | relative viability ([1]; 0.8 µM) | relative viability ([1]; 2.53 µM) | relative viability ([1]; 8 µM) | relative viability (Shikonin + Navitoclax; first compound 0.01 µM) | relative viability (Shikonin + Navitoclax; first compound 0.1 µM) | relative viability (Shikonin + Navitoclax; first compound 0.3162 µM) | relative viability (Shikonin + Navitoclax; first compound 1 µM) | relative viability ([2]; first compound 0.08 µM) | relative viability ([2]; first compound 0.253 µM) | relative viability ([2]; first compound 0.8 µM) | relative viability ([2]; first compound 2.53 µM) | relative viability ([2]; first compound 8 µM)
EMC-BAC-2 | 0.97 | 0.997 | 1.11 | 1.13 | 0.943 | 0.928 | 1.03 | 0.905 | 0.889 | 1.13 | 1.1 | 1.28 | 1.22 | 0.564 | 0.581 | 0.565 | 0.543 | 0.449
LU99A | 1.02 | 1 | 0.996 | 0.923 | 0.876 | 0.842 | 1.04 | 0.979 | 1.02 | 0.924 | 0.88 | 0.833 | 0.766 | 0.793 | 0.679 | 0.979 | 0.85 | 0.787
NCI-H2170 | 1.01 | 0.866 | 1.12 | 0.99 | 0.972 | 0.937 | 0.924 | 1.02 | 0.975 | 0.578 | 0.511 | 0.58 | 0.61 | 0.445 | 0.441 | 0.416 | 0.445 | 0.396
NCI-H2405 | 0.998 | 1.04 | 1.08 | 1.02 | 1.02 | 0.974 | 0.931 | 1.06 | 0.966 | 0.962 | 0.922 | 1.16 | 0.837 | 0.393 | 0.324 | 0.419 | 0.409 | 0.345
NCI-H2009 | 0.996 | 1.11 | 0.981 | 0.727 | 1.01 | 0.969 | 0.961 | 0.985 | 0.934 | 1.23 | 1.16 | 1.19 | 1.05 | 0.489 | 0.496 | 0.475 | 0.474 | 0.426
NCI-H441 | 1.24 | 0.942 | 1.18 | 0.975 | 1.01 | 1.06 |  | 1.1 | 0.981 | 0.615 | 0.76 | 0.742 | 0.396 | 0.813 | 0.923 |  | 0.776 | 0.824
PC-3 [JPC-3] | 1.1 | 1.05 | 1.09 | 1.07 | 0.969 | 1.06 | 0.883 | 1.03 | 0.934 | 0.758 | 0.848 | 0.884 | 0.786 | 0.478 | 0.491 | 0.495 | 0.451 | 0.488
HARA | 0.931 | 1.21 | 1.07 | 1.22 | 0.882 | 0.954 | 0.62 | 0.774 | 0.784 | 1.14 | 1.13 | 1.15 | 1.13 | 0.458 | 0.413 | 0.388 | 0.425 | 0.363
NCI-H2126 | 1.01 | 1.07 | 1.07 | 1.03 | 0.955 | 0.918 | 0.942 | 0.961 | 0.905 | 0.84 | 0.86 | 0.879 | 0.864 | 0.523 | 0.529 | 0.52 | 0.534 | 0.496
NCI-H1437 | 0.989 | 1.01 | 0.998 | 0.989 | 0.926 | 0.941 | 0.92 | 0.965 | 0.957 | 1.14 | 1.09 | 1.14 | 1.12 | 0.278 | 0.344 | 0.276 | 0.294 | 0.309
NCI-H1792 | 0.987 | 0.991 | 0.922 | 1.22 | 1.06 |  | 0.812 | 0.912 | 0.99 | 0.607 | 0.639 | 0.58 | 0.778 | 0.374 |  | 0.223 | 0.418 | 0.472
ChaGo-K-1 | 1.02 | 0.971 | 1.05 | 1.02 | 0.97 | 0.889 | 0.918 | 0.96 | 1.06 | 0.882 | 1.4 | 1.01 | 1.44 | 0.494 | 0.47 | 0.427 | 0.458 | 0.46
NCI-H727 | 0.916 | 1.03 | 0.933 | 1.02 | 0.867 | 0.815 | 0.868 | 0.931 | 0.943 | 0.405 | 0.502 | 0.366 | 0.295 | 0.554 | 0.461 | 0.46 | 0.639 | 0.412
COR-L23 | 1.18 | 1.02 | 1.12 | 0.995 | 1.04 | 1.03 | 1.08 | 1.01 | 1.02 | 1.13 | 1.26 | 1.05 | 0.908 | 0.467 | 0.418 | 0.434 | 0.426 | 0.418
COR-L 105 | 0.979 | 0.973 | 0.911 | 0.855 | 0.887 | 0.943 | 0.921 | 0.943 | 0.923 | 0.9 | 0.786 | 0.747 | 0.768 | 0.393 | 0.503 | 0.583 | 0.394 | 0.473
LK-2 | 1.1 | 0.955 | 0.998 | 1.03 | 0.886 | 0.792 | 1.04 | 0.966 | 0.974 | 0.913 | 0.866 | 1.03 | 0.852 | 0.433 | 0.326 | 0.433 | 0.562 | 0.411
201T | 1 | 1.06 | 1.02 | 1.09 | 1 | 1.02 | 0.746 | 0.981 | 1.02 | 1.2 | 1.26 | 1.18 | 1.19 | 0.474 | 0.421 | 0.43 | 0.421 | 0.401
